According to ChEMBL document CHEMBL4411309, “Discovery of 2-substituted-N-(3-(3,4-dihydroisoquinolin-2(1H)-yl)-2-hydroxypropyl)-1,2,3,4-tetrahydroisoquinoline-6-carboxamide as potent and selective protein arginine methyltransferases 5 inhibitors: Design, synthesis and biological evaluation” (Eur J Med Chem, 2019):

Key:
[1] = Cmax in Sprague-Dawley rat at 10 mg/kg, po administered via gavage by LC-MS/MS analysis; assay type: ADME, organism-based; parameters: dose 10 mg/kg, route oral; settings: in vivo
[2] = Tmax in Sprague-Dawley rat at 10 mg/kg, po administered via gavage by LC-MS/MS analysis; assay type: ADME, organism-based; settings: in vivo
[3] = Aqueous solubility of the compound; assay type: physicochemical; settings: buffer
MV4-11 [4] = test: Antitumor activity against human MV4-11 cells xenografted in Balb/c nude mouse assessed as tumor growth inhibition at 100 mg/kg, po administered once daily for 30 days relative to control; assay type: functional; settings: MV4-11, po, 720 h, read-out: TGI
[5] = AUC in Sprague-Dawley rat at 10 mg/kg, po administered via gavage by LC-MS/MS analysis; assay type: ADME, organism-based; settings: in vivo
[6] = Elimination half life in Sprague-Dawley rat at 10 mg/kg, po administered via gavage by LC-MS/MS analysis; assay type: ADME, organism-based; settings: in vivo, read-out: beta t1/2 (converted)
PRMT5/MEP50 complex = PRMT5/MEP50 complex (Homo sapiens, UniProt O14744); test: Inhibition of recombinant human N-terminal FLAG-tagged PRMT5 (2 to end residues)/human N-terminal His-tagged MEP50 (2 to end residues) expressed in HEK293F cells using H4 peptide as substrate preincubated for 15 mins followed by substrate and [3H]SAM addition and measured after 1 hr by scintillation counting method
Chain of PRMT5/MEP50 complex (O14744 whole entry): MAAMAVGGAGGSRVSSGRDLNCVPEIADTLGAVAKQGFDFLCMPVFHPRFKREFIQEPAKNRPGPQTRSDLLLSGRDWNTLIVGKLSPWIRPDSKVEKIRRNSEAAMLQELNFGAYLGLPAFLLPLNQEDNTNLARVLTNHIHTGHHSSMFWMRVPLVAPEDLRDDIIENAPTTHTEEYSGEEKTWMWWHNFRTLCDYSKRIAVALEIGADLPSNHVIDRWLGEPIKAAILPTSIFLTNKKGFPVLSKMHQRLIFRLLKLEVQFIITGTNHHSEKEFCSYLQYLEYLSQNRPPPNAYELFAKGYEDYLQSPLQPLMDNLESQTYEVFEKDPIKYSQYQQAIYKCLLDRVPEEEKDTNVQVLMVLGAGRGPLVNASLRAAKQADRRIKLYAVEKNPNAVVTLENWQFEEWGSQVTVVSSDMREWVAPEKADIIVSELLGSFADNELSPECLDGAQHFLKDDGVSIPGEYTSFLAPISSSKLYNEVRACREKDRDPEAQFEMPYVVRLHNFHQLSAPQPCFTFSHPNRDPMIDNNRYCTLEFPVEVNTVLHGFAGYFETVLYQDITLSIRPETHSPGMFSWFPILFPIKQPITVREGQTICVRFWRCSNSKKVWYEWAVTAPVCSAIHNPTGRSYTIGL
Chain of PRMT5/MEP50 complex (Q9BQA1 whole entry, further chain): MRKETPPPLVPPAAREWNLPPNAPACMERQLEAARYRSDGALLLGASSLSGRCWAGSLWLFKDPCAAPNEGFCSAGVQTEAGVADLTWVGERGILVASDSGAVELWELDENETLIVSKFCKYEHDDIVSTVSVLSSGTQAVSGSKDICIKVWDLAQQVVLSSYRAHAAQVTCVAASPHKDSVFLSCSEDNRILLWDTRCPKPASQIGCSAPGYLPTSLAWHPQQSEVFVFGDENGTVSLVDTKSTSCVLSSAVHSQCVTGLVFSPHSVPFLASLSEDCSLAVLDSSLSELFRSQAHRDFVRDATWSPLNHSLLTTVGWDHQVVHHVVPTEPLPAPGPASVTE

[7] = biological target: T1, Protein arginine N-methyltransferase 7 (Homo sapiens, UniProt Q9NVM4); test: Inhibition of recombinant full length human N-terminal FLAG-tagged PRMT7 expressed in Sf9 insect cells preincubated for 15 mins followed by substrate and [3H]SAM addition and measured after 240 mins by microbeta method
T1 sequence (Q9NVM4 whole entry): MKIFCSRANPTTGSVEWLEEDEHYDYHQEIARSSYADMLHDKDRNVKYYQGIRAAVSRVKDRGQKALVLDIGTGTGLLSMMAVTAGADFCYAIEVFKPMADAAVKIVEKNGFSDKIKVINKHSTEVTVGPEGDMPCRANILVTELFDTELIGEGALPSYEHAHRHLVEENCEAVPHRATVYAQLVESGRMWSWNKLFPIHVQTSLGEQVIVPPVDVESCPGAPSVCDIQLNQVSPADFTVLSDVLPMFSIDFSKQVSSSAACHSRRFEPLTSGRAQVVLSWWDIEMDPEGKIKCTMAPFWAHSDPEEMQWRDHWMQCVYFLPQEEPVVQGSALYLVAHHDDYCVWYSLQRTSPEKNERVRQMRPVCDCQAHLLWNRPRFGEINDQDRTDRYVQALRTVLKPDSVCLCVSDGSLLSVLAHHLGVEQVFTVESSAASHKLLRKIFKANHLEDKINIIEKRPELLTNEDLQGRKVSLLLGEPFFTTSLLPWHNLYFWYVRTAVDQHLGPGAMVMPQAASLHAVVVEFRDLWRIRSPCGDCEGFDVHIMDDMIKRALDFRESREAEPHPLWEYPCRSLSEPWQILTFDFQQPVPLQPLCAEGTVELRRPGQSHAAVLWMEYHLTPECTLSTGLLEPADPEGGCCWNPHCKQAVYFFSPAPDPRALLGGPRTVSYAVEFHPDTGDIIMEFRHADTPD

[8] = biological target: Protein arginine N-methyltransferase 3 (Homo sapiens, UniProt O60678); test: Inhibition of human N-terminal GST-tagged PRMT3 (2 to end residues) expressed in Escherichia coli preincubated for 15 mins followed by substrate addition and measured after 1 hr by Alphalisa assay
Chain of Protein arginine N-methyltransferase 3 (O60678 whole entry): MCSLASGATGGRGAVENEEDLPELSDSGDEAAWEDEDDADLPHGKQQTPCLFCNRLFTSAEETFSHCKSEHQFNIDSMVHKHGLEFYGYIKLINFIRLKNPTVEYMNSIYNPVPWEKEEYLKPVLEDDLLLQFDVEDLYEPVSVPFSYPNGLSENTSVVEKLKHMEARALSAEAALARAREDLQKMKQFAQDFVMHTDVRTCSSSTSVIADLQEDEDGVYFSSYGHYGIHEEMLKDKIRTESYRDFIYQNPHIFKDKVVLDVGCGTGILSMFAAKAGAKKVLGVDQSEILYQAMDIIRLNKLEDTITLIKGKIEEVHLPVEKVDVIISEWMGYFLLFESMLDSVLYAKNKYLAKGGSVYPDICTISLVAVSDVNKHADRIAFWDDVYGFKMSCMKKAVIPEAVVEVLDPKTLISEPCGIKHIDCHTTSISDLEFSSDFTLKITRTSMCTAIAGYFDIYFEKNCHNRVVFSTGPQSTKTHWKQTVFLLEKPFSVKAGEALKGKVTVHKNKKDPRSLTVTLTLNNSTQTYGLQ

[9] = biological target: Protein arginine N-methyltransferase 1 (Homo sapiens, UniProt Q99873); test: Inhibition of human N-terminal GST-tagged PRMT1 (2 to end residues) expressed in baculovirus infected Sf9 insect cells preincubated for 15 mins followed by substrate and [3H]SAM addition and measured after 1 hr by microbeta method
Chain of Protein arginine N-methyltransferase 1 (Q99873 whole entry): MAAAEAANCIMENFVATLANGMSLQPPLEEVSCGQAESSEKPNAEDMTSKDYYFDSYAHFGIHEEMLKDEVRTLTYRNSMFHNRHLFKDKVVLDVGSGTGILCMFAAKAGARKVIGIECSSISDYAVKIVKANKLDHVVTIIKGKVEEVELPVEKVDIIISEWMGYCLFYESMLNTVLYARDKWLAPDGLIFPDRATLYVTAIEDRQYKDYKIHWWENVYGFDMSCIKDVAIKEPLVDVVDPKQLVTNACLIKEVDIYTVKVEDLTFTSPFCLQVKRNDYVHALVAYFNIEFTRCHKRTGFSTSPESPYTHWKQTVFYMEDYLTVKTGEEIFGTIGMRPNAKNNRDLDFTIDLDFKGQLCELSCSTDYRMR

[10] = biological target: T2, Histone-arginine methyltransferase CARM1 (Homo sapiens, UniProt Q86X55); test: Inhibition of human N-terminal FLAG-tagged PRMT4 (2 to end residues) expressed in FreeStyle 293-F cells preincubated for 15 mins followed by substrate addition and measured after 1 hr by Alphalisa assay; assay type: cell-based
T2 sequence (Q86X55 whole entry): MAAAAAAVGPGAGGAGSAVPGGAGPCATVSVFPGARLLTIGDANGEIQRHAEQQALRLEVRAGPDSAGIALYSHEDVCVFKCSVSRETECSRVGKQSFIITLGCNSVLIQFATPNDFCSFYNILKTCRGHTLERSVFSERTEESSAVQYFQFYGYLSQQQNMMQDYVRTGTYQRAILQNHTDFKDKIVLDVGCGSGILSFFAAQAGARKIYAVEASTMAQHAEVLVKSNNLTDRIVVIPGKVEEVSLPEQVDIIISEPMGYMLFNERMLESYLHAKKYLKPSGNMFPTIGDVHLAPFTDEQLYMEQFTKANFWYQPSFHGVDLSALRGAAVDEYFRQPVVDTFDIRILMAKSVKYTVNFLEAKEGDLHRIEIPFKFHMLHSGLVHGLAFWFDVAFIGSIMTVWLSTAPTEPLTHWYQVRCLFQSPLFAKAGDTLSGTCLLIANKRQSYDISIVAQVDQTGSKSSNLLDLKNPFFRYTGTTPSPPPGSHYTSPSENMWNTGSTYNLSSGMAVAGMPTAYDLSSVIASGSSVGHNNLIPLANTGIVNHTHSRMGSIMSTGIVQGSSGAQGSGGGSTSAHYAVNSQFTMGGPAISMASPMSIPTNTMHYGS

MV4-11 [11] = test: Antiproliferative activity against human MV4-11 cells supplemented with fresh medium containing compound every 4 days measured on day 12 by Celltiter-glo luminescent cell viability assay; assay type: functional
[12] = biological target: Protein arginine N-methyltransferase 6 (Homo sapiens, UniProt Q96LA8); test: Inhibition of human N-terminal His-tagged PRMT6 (2 to 375 residues) expressed in Escherichia coli preincubated for 15 mins followed by substrate addition and measured after 1 hr by Alphalisa assay
Chain of Protein arginine N-methyltransferase 6 (Q96LA8 whole entry, the tested form may be a part): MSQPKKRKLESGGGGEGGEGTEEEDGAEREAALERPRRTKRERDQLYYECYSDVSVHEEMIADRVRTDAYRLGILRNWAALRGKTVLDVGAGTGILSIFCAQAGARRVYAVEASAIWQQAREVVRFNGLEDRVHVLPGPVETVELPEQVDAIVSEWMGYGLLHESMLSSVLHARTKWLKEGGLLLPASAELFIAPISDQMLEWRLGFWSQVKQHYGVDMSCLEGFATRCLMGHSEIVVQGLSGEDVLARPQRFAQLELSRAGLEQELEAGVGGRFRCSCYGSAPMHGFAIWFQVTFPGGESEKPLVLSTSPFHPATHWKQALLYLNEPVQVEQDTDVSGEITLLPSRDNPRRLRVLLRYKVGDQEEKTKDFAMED

[13] = biological target: Protein arginine N-methyltransferase 8 (Homo sapiens, UniProt Q9NR22); test: Inhibition of human N-terminal His/FLAG-tagged PRMT8 (61 to 394 residues) expressed in baculovirus infected Sf9 insect cells preincubated for 15 mins followed by substrate addition and measured after 1 hr by Alphalisa assay
Chain of Protein arginine N-methyltransferase 8 (Q9NR22 whole entry, the tested form may be a part): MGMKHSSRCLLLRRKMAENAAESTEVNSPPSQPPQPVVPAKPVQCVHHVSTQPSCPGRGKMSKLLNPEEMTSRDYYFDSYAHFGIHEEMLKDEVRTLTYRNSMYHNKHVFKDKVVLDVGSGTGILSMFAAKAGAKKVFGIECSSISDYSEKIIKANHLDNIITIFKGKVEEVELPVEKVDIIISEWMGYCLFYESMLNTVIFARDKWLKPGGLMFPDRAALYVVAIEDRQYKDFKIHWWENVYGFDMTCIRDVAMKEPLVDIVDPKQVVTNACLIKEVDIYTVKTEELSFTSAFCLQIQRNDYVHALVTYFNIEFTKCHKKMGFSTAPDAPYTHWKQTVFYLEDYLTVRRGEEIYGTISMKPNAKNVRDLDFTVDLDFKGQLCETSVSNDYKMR

MV4-11 [14] = test: Antiproliferative activity against human MV4-11 cells supplemented with fresh medium containing compound every 4 days measured on day 8 by Celltiter-glo luminescent cell viability assay; assay type: functional

Compound	Cmax [1] [ng/mL]	Tmax [2] [h]	solubility [3]	inhibition in vivo at 100 mg/kg (MV4-11 [4]) [%]	AUC [5] [ng·h/mL]	half-life [6] [h]	IC50 (PRMT5/MEP50 complex) [µM]	IC50 [7] [µM]	IC50 [8] [µM]	IC50 [9] [µM]	IC50 [10] [µM]	GI50 (MV4-11 [11]) [µM]	IC50 [12] [µM]	IC50 [13] [µM]	GI50 (MV4-11 [14]) [µM]
Cl.O=C(NC[C@H](O)CN1CCc2ccccc2C1)c1ccc2c(c1)CCN(C(=O)c1ccc(Br)cc1)C2	32	0.583	Soluble	54	168	4.6	–	–	–	–	–	–	–	–	–
O=C(NC[C@H](O)CN1CCc2ccccc2C1)c1ccc2c(c1)CCN(C(=O)c1ccc(Br)cc1)C2	–	–	Insoluble	–	–	–	0.0085	> 100	> 100	> 100	> 100	0.018	> 100	> 100	0.025
